Assay in all cases: relative viability (nuclei count vs DMSO), 5 days (fraction); higher = more cells survive
Compound in the assay “Ruxolitinib + AZD7762”: N#CC[C@H](C1CCCC1)n1cc(-c2ncnc3[nH]ccc23)cn1 [Ruxolitinib] + NC(=O)Nc1cc(-c2cccc(F)c2)sc1C(=O)N[C@H]1CCCNC1 [AZD7762] (partner 0.2 µM)
The method, boiled down:
(§1)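 A single step with final 0.05% Triton X-100, 1% formaldehyde and 1 ug/ml Hoechst fixed the cells and stained nuclei 5 days after treatment. Lung cancer cell lines in 1536-well plates had been treated by pin tool the day after seeding with one drug alone or a fixed anchor-drug dose plus five library-drug doses (not always all listed) in √10 steps, and nuclei were counted on 4× images. Relative viability is the ratio of nuclei in treated wells to nuclei in vehicle wells, taken as the median of duplicate plates.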

Compound in the assay “Vismodegib + Navitoclax”: CS(=O)(=O)c1ccc(C(=O)Nc2ccc(Cl)c(-c3ccccn3)c2)c(Cl)c1 [Vismodegib] + CC1(C)CCC(c2ccc(Cl)cc2)=C(CN2CCN(c3ccc(C(=O)NS(=O)(=O)c4ccc(N[C@H](CCN5CCOCC5)CSc5ccccc5)c(S(=O)(=O)C(F)(F)F)c4)cc3)CC2)C1 [Navitoclax] (partner 0.5 µM)
A digest of the protocol:
as §1

Compound in the assay “VE-821 + Dasatinib”: CS(=O)(=O)c1ccc(-c2cnc(N)c(C(=O)Nc3ccccc3)n2)cc1 [VE-821] + Cc1nc(Nc2ncc(C(=O)Nc3c(C)cccc3Cl)s2)cc(N2CCN(CCO)CC2)n1 [Dasatinib] (partner 0.075 µM)
A digest of the protocol:
as §1

Compound in the assay “Vismodegib + Palbociclib”: CS(=O)(=O)c1ccc(C(=O)Nc2ccc(Cl)c(-c3ccccn3)c2)c(Cl)c1 [Vismodegib] + CC(=O)c1c(C)c2cnc(Nc3ccc(N4CCNCC4)cn3)nc2n(C2CCCC2)c1=O [Palbociclib] (partner 0.5 µM)
The method, boiled down:
as §1

As to NCI-H1993, the relative viability was found to be 0.828 in the assay with Ruxolitinib + AZD7762 (first compound 0.08 µM); 0.646 with Ruxolitinib + AZD7762 (first compound 0.253 µM); 1.05 in the assay with Ruxolitinib + AZD7762 (first compound 0.8 µM); 0.794 with Ruxolitinib + AZD7762 (first compound 2.53 µM); 0.985 in the assay with Ruxolitinib + AZD7762 (first compound 8 µM); 1.1 with Vismodegib + Navitoclax (first compound 0.08 µM). Further, the relative viability stood at 0.913 with Vismodegib + Navitoclax (first compound 0.253 µM); 0.884 in the assay with Vismodegib + Navitoclax (first compound 0.8 µM); 0.759 in the assay with Vismodegib + Navitoclax (first compound 2.53 µM); 0.705 with Vismodegib + Navitoclax (first compound 8 µM); 0.563 with VE-821 + Dasatinib (first compound 0.08 µM); 0.503 with VE-821 + Dasatinib (first compound 0.253 µM). The relative viability was 0.523 with VE-821 + Dasatinib (first compound 0.8 µM); 0.524 in the assay with VE-821 + Dasatinib (first compound 2.53 µM); 0.538 with VE-821 + Dasatinib (first compound 8 µM); 0.699 with Vismodegib + Palbociclib (first compound 0.08 µM); 0.682 with Vismodegib + Palbociclib (first compound 0.253 µM); 0.636 with Vismodegib + Palbociclib (first compound 0.8 µM). In addition, the relative viability in the assay with Vismodegib + Palbociclib (first compound 2.53 µM) worked out at 0.568; in the assay with Vismodegib + Palbociclib (first compound 8 µM) it was 0.565.

In the case of NCI-H2085, the relative viability with Ruxolitinib + AZD7762 (first compound 0.08 µM) stood at 1.08; in the assay with Ruxolitinib + AZD7762 (first compound 0.253 µM) it was 1.1; in the assay with Ruxolitinib + AZD7762 (first compound 0.8 µM) it was 1.01; with Ruxolitinib + AZD7762 (first compound 2.53 µM), 0.921; with Ruxolitinib + AZD7762 (first compound 8 µM) it was 0.984; in the assay with Vismodegib + Navitoclax (first compound 0.08 µM), 1.11. Moreover, the relative viability amounted to 1.06 with Vismodegib + Navitoclax (first compound 0.253 µM); 1.12 in the assay with Vismodegib + Navitoclax (first compound 0.8 µM); 1.06 in the assay with Vismodegib + Navitoclax (first compound 2.53 µM); 1.12 with Vismodegib + Navitoclax (first compound 8 µM); 0.214 with VE-821 + Dasatinib (first compound 0.08 µM); 0.259 with VE-821 + Dasatinib (first compound 0.253 µM). Besides, the relative viability with VE-821 + Dasatinib (first compound 0.8 µM) was found to be 0.192; with VE-821 + Dasatinib (first compound 2.53 µM) it was 0.226; with VE-821 + Dasatinib (first compound 8 µM), 0.202; with Vismodegib + Palbociclib (first compound 0.08 µM), 0.459; with Vismodegib + Palbociclib (first compound 0.253 µM) it was 0.474; in the assay with Vismodegib + Palbociclib (first compound 0.8 µM), 0.483. The relative viability with Vismodegib + Palbociclib (first compound 2.53 µM) was 0.467; in the assay with Vismodegib + Palbociclib (first compound 8 µM) it was 0.502.

Turning to NCI-H2087, the relative viability was 1.19 with Ruxolitinib + AZD7762 (first compound 0.08 µM); 1.39 with Ruxolitinib + AZD7762 (first compound 0.8 µM); 1.21 in the assay with Ruxolitinib + AZD7762 (first compound 2.53 µM); 0.956 with Ruxolitinib + AZD7762 (first compound 8 µM); 0.952 with Vismodegib + Navitoclax (first compound 0.08 µM); 0.969 with Vismodegib + Navitoclax (first compound 0.253 µM). Moreover, the relative viability in the assay with Vismodegib + Navitoclax (first compound 0.8 µM) was determined as 0.961; with Vismodegib + Navitoclax (first compound 2.53 µM) it was 0.954; with Vismodegib + Navitoclax (first compound 8 µM), 0.943; with VE-821 + Dasatinib (first compound 0.08 µM), 0.871; with VE-821 + Dasatinib (first compound 0.253 µM) it was 0.814; in the assay with VE-821 + Dasatinib (first compound 0.8 µM), 0.912. For the same cell line, the relative viability amounted to 1.2 with VE-821 + Dasatinib (first compound 2.53 µM); 0.786 with VE-821 + Dasatinib (first compound 8 µM); 0.188 with Vismodegib + Palbociclib (first compound 0.08 µM); 0.235 in the assay with Vismodegib + Palbociclib (first compound 0.253 µM); 0.22 with Vismodegib + Palbociclib (first compound 0.8 µM); 0.217 with Vismodegib + Palbociclib (first compound 2.53 µM). Further, in the assay with Vismodegib + Palbociclib (first compound 8 µM), the relative viability came out at 0.232.

NCI-H2126: the relative viability with Ruxolitinib + AZD7762 (first compound 0.08 µM) was 0.954; with Ruxolitinib + AZD7762 (first compound 0.253 µM) it was 1.12; with Ruxolitinib + AZD7762 (first compound 0.8 µM), 1.09; with Ruxolitinib + AZD7762 (first compound 2.53 µM), 0.995; with Ruxolitinib + AZD7762 (first compound 8 µM), 0.967; in the assay with Vismodegib + Navitoclax (first compound 0.08 µM), 0.838. The relative viability in the assay with Vismodegib + Navitoclax (first compound 0.253 µM) is 0.846; in the assay with Vismodegib + Navitoclax (first compound 0.8 µM), 0.864; in the assay with Vismodegib + Navitoclax (first compound 2.53 µM), 0.802; with Vismodegib + Navitoclax (first compound 8 µM), 0.766; with VE-821 + Dasatinib (first compound 0.08 µM) it was 0.57; with VE-821 + Dasatinib (first compound 0.253 µM), 0.52. The relative viability in the assay with VE-821 + Dasatinib (first compound 0.8 µM) amounted to 0.515; in the assay with VE-821 + Dasatinib (first compound 2.53 µM), 0.427; with VE-821 + Dasatinib (first compound 8 µM), 0.36; with Vismodegib + Palbociclib (first compound 0.08 µM) it was 0.329; in the assay with Vismodegib + Palbociclib (first compound 0.253 µM), 0.335; with Vismodegib + Palbociclib (first compound 0.8 µM) it was 0.342. Besides, the values for the relative viability with Vismodegib + Palbociclib (first compound 2.53 µM) and in the assay with Vismodegib + Palbociclib (first compound 8 µM) were 0.333 and 0.328, respectively.

In the case of NCI-H2170, the relative viability came out at 0.908 with Ruxolitinib + AZD7762 (first compound 0.08 µM); 0.834 with Ruxolitinib + AZD7762 (first compound 0.253 µM); 0.959 in the assay with Ruxolitinib + AZD7762 (first compound 0.8 µM); 0.76 in the assay with Ruxolitinib + AZD7762 (first compound 2.53 µM); 0.706 in the assay with Ruxolitinib + AZD7762 (first compound 8 µM); 0.683 with Vismodegib + Navitoclax (first compound 0.08 µM). For the same cell line, the relative viability in the assay with Vismodegib + Navitoclax (first compound 0.253 µM) turned out to be 0.602; in the assay with Vismodegib + Navitoclax (first compound 0.8 µM) it was 0.755; in the assay with Vismodegib + Navitoclax (first compound 2.53 µM), 0.473; with Vismodegib + Navitoclax (first compound 8 µM), 0.617; with VE-821 + Dasatinib (first compound 0.08 µM) it was 0.62; with VE-821 + Dasatinib (first compound 0.253 µM) it was 0.465. In addition, the relative viability amounted to 0.463 with VE-821 + Dasatinib (first compound 0.8 µM); 0.421 with VE-821 + Dasatinib (first compound 2.53 µM); 0.381 in the assay with VE-821 + Dasatinib (first compound 8 µM); 0.432 in the assay with Vismodegib + Palbociclib (first compound 0.08 µM); 0.387 with Vismodegib + Palbociclib (first compound 0.253 µM); 0.469 with Vismodegib + Palbociclib (first compound 0.8 µM). In addition, the results for the relative viability with Vismodegib + Palbociclib (first compound 2.53 µM) and in the assay with Vismodegib + Palbociclib (first compound 8 µM) were 0.379 and 0.418, respectively.

The values are drawn from the supplement of paper PMC10307832.
